What was measured:
blackgrass [1] = assay: Test Example 5: herbicidal effect by foliage application, plastic box (Table 20, symbol J); assay type: in vivo, blackgrass (Alopecurus myosuroides); settings: foliage application, 320 g/ha, evaluated three weeks after application
Outline: (§1)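 Post-emergence foliar test in sterilized diluvial soil. Compound applied as water-diluted emulsion at a predetermined rate to 14-day-old plants; evaluation at three weeks.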

blackgrass [2] = assay: Test Example 4: herbicidal effect by soil treatment (Table 19, symbol J); assay type: in vivo, blackgrass (Alopecurus myosuroides); settings: amount of applied herbicide 320 g/ha
Outline: (§2)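 Scoring uses the grading scale of an earlier test, three weeks post-application. Treatment consists of spraying a diluted emulsion formulation across the surface of sterilized diluvial soil in which seeds are buried near 1.5 cm deep; boxes are kept in a greenhouse between 25° C. and 30° C.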

lambsquarters [3] = assay: Test Example 5: herbicidal effect by foliage application, plastic box (Table 20, symbol O); assay type: in vivo, lambsquarters (Chenopodium album); settings: foliage application, 320 g/ha, evaluated three weeks after application
Outline: as §1

barnyard grass [4] = assay: Test Example 4: herbicidal effect by soil treatment (Table 19, symbol H); assay type: in vivo, barnyard grass (Echinochloa crus-galli); settings: amount of applied herbicide 320 g/ha
Outline: as §2

windgrass [5] = assay: Test Example 4: herbicidal effect by soil treatment (Table 19, symbol L); assay type: in vivo, windgrass (Apera spica-venti); settings: amount of applied herbicide 320 g/ha
Outline: as §2

barnyard grass [6] = assay: Test Example 5: herbicidal effect by foliage application, plastic box (Table 20, symbol H); assay type: in vivo, barnyard grass (Echinochloa crus-galli); settings: foliage application, 320 g/ha, evaluated three weeks after application
Outline: as §1

barnyard grass [7] = assay: Test Example 3: herbicidal effect by foliage application, Wagner pot (Table 18, symbol H); assay type: in vivo, barnyard grass (Echinochloa crus-galli); settings: amount of applied herbicide 320 g/ha
Outline: (§3)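 Plants were sown in alluvial soil held under 0.1–0.5 cm standing water and grown 14 days in a greenhouse at 25–30 °C. An emulsifiable formulation, water-diluted to the set dose, was then sprayed onto the foliage, and effects were scored three weeks later using previously defined criteria.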

windgrass [8] = assay: Test Example 5: herbicidal effect by foliage application, plastic box (Table 20, symbol L); assay type: in vivo, windgrass (Apera spica-venti); settings: foliage application, 320 g/ha, evaluated three weeks after application
Outline: as §1

redroot pigweed [9] = assay: Test Example 4: herbicidal effect by soil treatment (Table 19, symbol N); assay type: in vivo, redroot pigweed (Amaranthus retroflexus); settings: amount of applied herbicide 320 g/ha
Outline: as §2

velvetleaf [10] = assay: Test Example 4: herbicidal effect by soil treatment (Table 19, symbol M); assay type: in vivo, velvetleaf (Abutilon theophrasti); settings: amount of applied herbicide 320 g/ha
Outline: as §2

rice flat sedge = assay: Test Example 3: herbicidal effect by foliage application, Wagner pot (Table 18, symbol E); assay type: in vivo, rice flat sedge (Cyperus iria); settings: amount of applied herbicide 320 g/ha
Outline: as §3

chickweed [11] = assay: Test Example 4: herbicidal effect by soil treatment (Table 19, symbol P); assay type: in vivo, common chickweed (Stellaria media); settings: amount of applied herbicide 320 g/ha
Outline: as §2

green foxtail [12] = assay: Test Example 5: herbicidal effect by foliage application, plastic box (Table 20, symbol G); assay type: in vivo, green foxtail (Setaria viridis); settings: foliage application, 320 g/ha, evaluated three weeks after application
Outline: as §1

redroot pigweed [13] = assay: Test Example 5: herbicidal effect by foliage application, plastic box (Table 20, symbol N); assay type: in vivo, redroot pigweed (Amaranthus retroflexus); settings: foliage application, 320 g/ha, evaluated three weeks after application
Outline: as §1

persian speedwell [14] = assay: Test Example 4: herbicidal effect by soil treatment (Table 19, symbol R); assay type: in vivo, Persian speedwell (Veronica persica); settings: amount of applied herbicide 320 g/ha
Outline: as §2

green foxtail [15] = assay: Test Example 4: herbicidal effect by soil treatment (Table 19, symbol G); assay type: in vivo, green foxtail (Setaria viridis); settings: amount of applied herbicide 320 g/ha
Outline: as §2

wild oat [16] = assay: Test Example 4: herbicidal effect by soil treatment (Table 19, symbol I); assay type: in vivo, wild oat (Avena fatua); settings: amount of applied herbicide 320 g/ha
Outline: as §2

velvetleaf [17] = assay: Test Example 5: herbicidal effect by foliage application, plastic box (Table 20, symbol M); assay type: in vivo, velvetleaf (Abutilon theophrasti); settings: foliage application, 320 g/ha, evaluated three weeks after application
Outline: as §1

persian speedwell [18] = assay: Test Example 5: herbicidal effect by foliage application, plastic box (Table 20, symbol R); assay type: in vivo, Persian speedwell (Veronica persica); settings: foliage application, 320 g/ha, evaluated three weeks after application
Outline: as §1

Italian ryegrass [19] = assay: Test Example 4: herbicidal effect by soil treatment (Table 19, symbol K); assay type: in vivo, Italian ryegrass (Lolium multiflorum); settings: amount of applied herbicide 320 g/ha
Outline: as §2

wild oat [20] = assay: Test Example 5: herbicidal effect by foliage application, plastic box (Table 20, symbol I); assay type: in vivo, wild oat (Avena fatua); settings: foliage application, 320 g/ha, evaluated three weeks after application
Outline: as §1

late watergrass = assay: Test Example 1: herbicidal activity, application before weed generation under submerged conditions (Table 16, symbol A); assay type: in vivo, late watergrass (Echinochloa oryzicola); settings: 320 g/ha applied herbicide
Outline: (§4)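 Emulsion formulation, water-diluted to set dose, was put onto the flooded surface (4 cm depth, alluvial soil) the same day weeds were sown and 2.5-leaf rice transplanted. After 3 weeks at 25-30 °C under glass, each species was rated 0 (≤5% kill) to 5 (≥90% kill).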

Chinese sprangletop = assay: Test Example 3: herbicidal effect by foliage application, Wagner pot (Table 18, symbol D); assay type: in vivo, chinese sprangletop (Leptochloa chinensis); settings: amount of applied herbicide 320 g/ha
Outline: as §3

Japanese bulrush = assay: Test Example 1: herbicidal activity, application before weed generation under submerged conditions (Table 16, symbol B); assay type: in vivo, Japanese bulrush (Schoenoplectus juncoides); settings: 320 g/ha applied herbicide
Outline: as §4

lambsquarters [21] = assay: Test Example 4: herbicidal effect by soil treatment (Table 19, symbol O); assay type: in vivo, lambsquarters (Chenopodium album); settings: amount of applied herbicide 320 g/ha
Outline: as §2

Italian ryegrass [22] = assay: Test Example 5: herbicidal effect by foliage application, plastic box (Table 20, symbol K); assay type: in vivo, Italian ryegrass (Lolium multiflorum); settings: foliage application, 320 g/ha, evaluated three weeks after application
Outline: as §1

southern crabgrass [23] = assay: Test Example 5: herbicidal effect by foliage application, plastic box (Table 20, symbol F); assay type: in vivo, southern crabgrass (Digitaria ciliaris); settings: foliage application, 320 g/ha, evaluated three weeks after application
Outline: as §1

southern crabgrass [24] = assay: Test Example 4: herbicidal effect by soil treatment (Table 19, symbol F); assay type: in vivo, southern crabgrass (Digitaria ciliaris); settings: amount of applied herbicide 320 g/ha
Outline: as §2

chickweed [25] = assay: Test Example 5: herbicidal effect by foliage application, plastic box (Table 20, symbol P); assay type: in vivo, common chickweed (Stellaria media); settings: foliage application, 320 g/ha, evaluated three weeks after application
Outline: as §1

oval-leafed pondweed = assay: Test Example 1: herbicidal activity, application before weed generation under submerged conditions (Table 16, symbol C); assay type: in vivo, oval-leafed pondweed (Monochoria vaginalis); settings: 320 g/ha applied herbicide
Outline: as §4

Structure (SMILES): CCCC(=O)Oc1c(C)nn(C)c(=O)c1-c1c(-c2ccccc2C(F)(F)F)sc2ccc(F)cc12 [2-230]
- herbicidal effect on J: blackgrass (criteria 0-5) (blackgrass [1]): 0 (Herbicidal rate of 5% or less (almost no effect))
- herbicidal effect on J: blackgrass (blackgrass [2]): 0 (Herbicidal rate of 5% or less (almost no effect))
- herbicidal effect on O: lambsquarters (criteria 0-5) (lambsquarters [3]): 4 (Herbicidal rate of 70% or more and less than 90%)
- herbicidal effect on H: barnyard grass (barnyard grass [4]): 0 (Herbicidal rate of 5% or less (almost no effect))
- herbicidal effect on L: windgrass (windgrass [5]): 0 (Herbicidal rate of 5% or less (almost no effect))
- herbicidal effect on H: barnyard grass (criteria 0-5) (barnyard grass [6]): 2 (Herbicidal rate of 20% or more and less than 40%)
- herbicidal effect on H: barnyard grass (barnyard grass [7]): 4 (Herbicidal rate of 70% or more and less than 90%)
- herbicidal effect on L: windgrass (criteria 0-5) (windgrass [8]): 3 (Herbicidal rate of 40% or more and less than 70%)
- herbicidal effect on N: redroot pigweed (redroot pigweed [9]): 0 (Herbicidal rate of 5% or less (almost no effect))
- herbicidal effect on M: velvetleaf (velvetleaf [10]): 0 (Herbicidal rate of 5% or less (almost no effect))
- herbicidal effect on E: rice flat sedge (rice flat sedge): 5 (Herbicidal rate of 90% or more (almost completely withered))
- herbicidal effect on P: chickweed (chickweed [11]): 3 (Herbicidal rate of 40% or more and less than 70%)
- herbicidal effect on G: green foxtail (criteria 0-5) (green foxtail [12]): 3 (Herbicidal rate of 40% or more and less than 70%)
- herbicidal effect on N: redroot pigweed (criteria 0-5) (redroot pigweed [13]): 5 (Herbicidal rate of 90% or more (almost completely withered))
- herbicidal effect on R: persian speedwell (persian speedwell [14]): 0 (Herbicidal rate of 5% or less (almost no effect))
- herbicidal effect on G: green foxtail (green foxtail [15]): 0 (Herbicidal rate of 5% or less (almost no effect))
- herbicidal effect on I: wild oat (wild oat [16]): 0 (Herbicidal rate of 5% or less (almost no effect))
- herbicidal effect on M: velvetleaf (criteria 0-5) (velvetleaf [17]): 5 (Herbicidal rate of 90% or more (almost completely withered))
- herbicidal effect on R: persian speedwell (criteria 0-5) (persian speedwell [18]): 5 (Herbicidal rate of 90% or more (almost completely withered))
- herbicidal effect on K: Italian ryegrass (Italian ryegrass [19]): 2 (Herbicidal rate of 20% or more and less than 40%)
- herbicidal effect on I: wild oat (criteria 0-5) (wild oat [20]): 0 (Herbicidal rate of 5% or less (almost no effect))
- Herbicidal effect on A: late watergrass (grade 0-5) (late watergrass): 3 (Herbicidal rate of 40% or more and less than 70%)
- herbicidal effect on D: Chinese sprangletop (Chinese sprangletop): 5 (Herbicidal rate of 90% or more (almost completely withered))
- Herbicidal effect on B: Japanese bulrush (grade 0-5) (Japanese bulrush): 0 (Herbicidal rate of 5% or less (almost no effect))
- herbicidal effect on O: lambsquarters (lambsquarters [21]): 0 (Herbicidal rate of 5% or less (almost no effect))
- herbicidal effect on K: Italian ryegrass (criteria 0-5) (Italian ryegrass [22]): 3 (Herbicidal rate of 40% or more and less than 70%)
- herbicidal effect on F: southern crabgrass (criteria 0-5) (southern crabgrass [23]): 0 (Herbicidal rate of 5% or less (almost no effect))
- herbicidal effect on F: southern crabgrass (southern crabgrass [24]): 0 (Herbicidal rate of 5% or less (almost no effect))
- herbicidal effect on P: chickweed (criteria 0-5) (chickweed [25]): 5 (Herbicidal rate of 90% or more (almost completely withered))
- Herbicidal effect on C: oval-leafed pondweed (grade 0-5) (oval-leafed pondweed): 0 (Herbicidal rate of 5% or less (almost no effect))

Reference: patent US20230085307A1, “PYRIDAZINONE COMPOUND AND HERBICIDE” (NISSAN CHEMICAL CORPORATION, priority 2019, published 2023)
